Data reported in US8603755B2, “Resistance to auxinic herbicides” (Dow AgroSciences, LLC., priority 2006, dated 2013).

Columns and labels:
Type in all cases: in vivo
[1] = tested on: Arabidopsis Group 1 line R127; experiment: Root growth dose response of Group 1 line R127
Protocol: (§1) The dose responses of root growth of the mutant lines treated with a variety of auxins were measured to define the level and chemical spectrum of resistance in detail.
Four additional herbicidal compounds were also tested on the Group 1 line, R127.

[2] = tested on: Group 1 mutant R009 Arabidopsis plants; experiment: Foliar spray application in the greenhouse, AFB5 mutant; details: 12 days after treatment
Protocol: (§2) FIGS. 8A-8C show a comparison of the effect of a foliar application of 200 g/ha picloram (FIG. 8A), 200 g/ha aminopyralid (FIG. 8B) or 50 g/ha 2,4-D (FIG. 8C) on wild type Col-0 and mutant R009 Arabidopsis plants. Pictures were taken 12 days after treatment of 17-day old plants.
(§3) Arabidopsis seedlings were grown for two weeks in a growth chamber (23° C.; continuous light at 120-150 μE m^−2 sec^−1), then taken to the greenhouse for three days after which plants were sprayed with herbicide using a track-sprayer to deliver the appropriate rate. Plants were then grown in the greenhouse for 12 days (22° C. under supplemented light with a 14 h: 10 h light-dark cycle) prior to photography and evaluation. […] Thus the chemical selectivity of resistance seen in seedling plate assays is maintained in adult plants with foliar exposure to the auxin herbicides.

[3] = tested on: Arabidopsis mutant line R090; experiment: Seedling resistance screen, line R090; details: line R090, allelic to axr1-3
Protocol: (§4) To identify mutants resistant to picolinate auxins, EMS-mutagenized M2 seedlings were screened for resistance to DAS534, a 6-phenylpicolinate auxin (Compound 173 in WO 03/011853A1). The seedlings were grown on agarose medium containing 10 nM DAS534. This concentration was sufficient to produce marked auxinic effects on the seedlings including significant inhibition (60%) of root growth. From a total of 780,100 EMS M2 seedlings, 125 putative resistant mutants were identified by visual inspection. Seeds were recovered from 33 of these plants. Selection of lines for further study was based on the strength of resistance, elimination of potential siblings and the health and fertility of adult plants.
The mutants were crossed with wild-type Col-0 plants and the progeny were analyzed for resistance to DAS534. […] To determine the number of genetic loci identified in this screen, complementation tests were performed by crossing the herbicide-resistant mutants with each other and the known auxin-resistant mutant axr1-3 in a pair-wise fashion. […] Complementation Group 1 contained the mutants R009, R024, R045 and R127, and complementation Group 2 contained the mutants R051, R107 and R118. All seven selectively-resistant mutant lines were phenotypically normal when grown on agarose medium or in soil and they had normal fertility. […]

[4] = tested on: Arabidopsis mutant tir1-1; experiment: Root growth response of mutant tir1-1
Protocol: (§5) FIGS. 5A-5C. Comparison of the effect of DAS534 and 2,4-D on previously characterized mutants. Measurements were performed as described in FIG. 2. Typical root lengths for untreated controls were 20, 39 and 31 mm for tir1-1, axr2-1 and axr1-3 plants respectively. (FIG. 5A) Effect of DAS534 on edm1 and R051. The deletion mutant line edm1 lacks seven genes (At4g11220 through At4g11280) including SGT1b (Tor et al., Plant Cell 14: 993-1003, 2002). Effect of DAS534 (FIG. 5B) and 2,4-D (FIG. 5C) on axr1-3, axr2-1 and tir1-1 compared with R009 and R051.

[5] = tested on: Arabidopsis Group 1 (afb5) and Group 2 (sgt1b) mutant lines; experiment: Root growth dose response of picolinate auxin resistant mutants, complementation Groups 1 and 2
Protocol: FIGS. 1A-1D. […] Root lengths of Arabidopsis seedlings were measured 8 days after seeding on plates containing a range of concentrations of the test compounds and are plotted as a percentage of the root length of untreated plants in the same experiment. […] The symbols used for wild type, R009 from complementation Group 1 and R051 from complementation Group 2 are denoted in FIG. 1A.
To identify mutants resistant to picolinate auxins, EMS-mutagenized M2 seedlings were screened for resistance to DAS534, a 6-phenylpicolinate auxin (Compound 173 in WO 03/011853A1). The seedlings were grown on agarose medium containing 10 nM DAS534. […] Selection of lines for further study was based on the strength of resistance, elimination of potential siblings and the health and fertility of adult plants.
as §1

[6] = tested on: Arabidopsis mutant axr1-3; experiment: Root growth response of mutant axr1-3
Protocol: as §5
The mutant axr1-3 is defective in the rubinylation mechanism required to activate SCF complexes. […] The axr1-3 mutant was also very resistant to picloram (160-fold). […] This is consistent with its general role in the activation of SCF complexes (Schwechheimer et al., Plant Cell. 14(10):2553-2563, 2002).

[7] = tested on: wild type Col-0 Arabidopsis plants; experiment: Foliar spray application in the greenhouse, wild type; details: 12 days after treatment
Protocol: as §2, §3

[8] = tested on: Arabidopsis deletion mutant line edm1; experiment: Root growth response of deletion mutant edm1; details: edm1, data not shown
Protocol: as §5
The R051 mutation was mapped to a 100 kb interval on chromosome 4 around 36 cM between markers C4—36 and C4—37 (FIG. 3). This interval contains 17 genes including At4g11260 which encodes the tetratricopeptide-repeat containing protein, SGT1b (SEQ ID NO: 4). […] The deletion mutant line edm1 lacks seven genes (At4g11220 through At4g11280) including SGT1b (Tor et al., Plant Cell 14: 993-1003, 2002). […] It was also very cross-resistant to picloram (20-fold, data not shown) similar to the Group 2 mutants. To determine if the DAS534-resistant mutants in complementation Group 2 contained mutations in SGT1b, At4g11260 was PCR amplified from genomic DNA from all three of the mutants. […]

[9] = tested on: Arabidopsis seedlings (wild type / EMS M2); experiment: Seedling plate assay on agarose medium, root growth and morphology
Protocol: FIGS. 1A-1D. Differential effects of auxins on root growth of mutants from complementation Groups 1 and 2. Root lengths of Arabidopsis seedlings were measured 8 days after seeding on plates containing a range of concentrations of the test compounds and are plotted as a percentage of the root length of untreated plants in the same experiment. Typical root lengths for untreated controls were 21, 21 and 24 mm for wild-type, Group 1, and Group 2 plants respectively. The symbols used for wild type, R009 from complementation Group 1 and R051 from complementation Group 2 are denoted in FIG. 1A.
as §4

O=C(O)c1nc(Cl)ccc1Cl [clopyralid]
fold resistance [1]: 50 fold

O=C(O)COc1ccc(Cl)cc1Cl [2,4-D]
effect of foliar spray application ([2]; 50 g/ha): auxinic symptoms and growth reduction
resistance of line R090 [3]: robust resistance
level of resistance, in words [4]: significantly lower levels of resistance to 2,4-D than axr1
cross resistance of DAS534-resistant lines ([5]; 0.045 μM 2,4-D, seven lines R009, R024, R045, R127, R051, R107, R118): negligible resistance
resistance of the mutant lines, in words ([5]; root growth dose response, both complementation groups): negligible resistance
level of resistance, in words [6]: high level of resistance
effect of foliar spray application ([7]; 50 g/ha, wild type): auxinic symptoms and growth reduction

COc1c(Cl)ccc(Cl)c1C(=O)O [dicamba]
resistance or difference in response, in words [1]: no resistance

Nc1cc(Cl)nc(C(=O)O)c1Cl [aminopyralid]
effect of foliar spray application ([2]; 200 g/ha): minimal effect
effect of foliar spray application ([7]; 200 g/ha, wild type Col-0): profound morphological effects and severely inhibited plant growth

O=C(O)c1ccccc1C(=O)Nc1cccc2ccccc12 [napthylphthalamic acid]
resistance or difference in response, in words [1]: no difference in response

Nc1c(Cl)c(Cl)nc(C(=O)O)c1Cl [picloram]
effect of foliar spray application ([2]; 200 g/ha): minimal effect
level of resistance, in words [4]: slightly more resistant
fold resistance [6]: 160 fold
effect of foliar spray application ([7]; 200 g/ha, wild type Col-0): profound morphological effects and severely inhibited plant growth
cross-resistance [8]: 20 fold

O=C(O)Cc1cccc2ccccc12 [1-naphthylacetic acid]
resistance or difference in response, in words [1]: no resistance

Nc1c(F)c(-c2ccc(Cl)cc2)nc(C(=O)O)c1Cl [DAS534, 4-amino-3-chloro-5-fluoro-6-(4-chlorophenyl)pyridine-2-carboxylic acid]
inhibition at 0.01 µM ([9]; Arabidopsis thaliana, 10 nM DAS534 in agarose medium): 60%
visible auxinic effects on seedlings ([9]; wild-type plants, 5 nM DAS534): slight agravitopism, have elongated hypocotyls and are unable to fully expand their cotyledons
resistance of line R090 [3]: robust resistance
level of resistance, in words [4]: modest level of resistance
hypocotyl elongation and cotyledon expansion ([5]; Group 1 mutant R127 and Group 2 mutant R051, 5 nM DAS534): unaffected
level of resistance, in words [6]: high level of resistance
